One data set can be described thus: Solubility in water. It is filed as physicochemical.
How the values of data set [1] were obtained:
Supercritical applications using CO2 typically operate at temperatures between above 32° C. and pressures above about 1,070 psi.

Data set [2] in a line: Solubility in common organic solvents. In kind it is physicochemical. The conditions noted are these: such as dichloromethane and acetone. On the procedure:
This example details the synthesis of a tetrabutyl ammonium molten salt of the amide having chemical formula III above. One-tenth of a mole (50 g) of the sodium salt of the amide-sulfonate salt having chemical structure III above (with R2 and R4 being CH2CH3, R1 and R5 each being a 2-ethylhexyl group, and R3 being CH2) was dissolved in 250 mL of dichloromethane, and one-tenth mole (32 g) of tetrabutyl ammonium bromide was added as a solid. The mixture was stirred for a day, after which time the solution was filtered first through filter paper and then through a short plug of silica gel. The eluted dichloromethane solution was quickly washed with water, dried over magnesium sulfate, and the solvent removed in vacuo, leaving the desired product in high yield (64 g, 89%). The product salt is soluble in both water and in several common organic solvents, such as dichloromethane and acetone. The melting range of the resulting salt was less than about 30° C. because the product was a viscous oil at room temperature. The product salt included Bis (N-ethyl-N-(2-ethylhexyl)sulfosuccinate diamide) anion paired with tetrabutyl ammonium cation.

This is another data set of the same source.

The source of these data is patent US7750166B2, “Ionic liquids containing a sulfonate anion” (University of South Alabama, priority 2002, dated 2010).

Read-outs that look alike come from different tables or passages of the source.

Consider `CCCCC(CC)COC(=O)CC(C(=O)OCC(CC)CCCC)S(=O)(=O)[O-].CCCC[N+](C)(CCCC)CCCC` (stereo not drawn) [Example 2, Me(n-Bu)3N Docusate], for which, in “Solubility in water”, the Solubility in water result is listed as “Hydrophobic”. For the compound `CCCCC(CC)COC(=O)CC(C(=O)OCC(CC)CCCC)S(=O)(=O)[O-].CCCCC(CC)COC(=O)CC(C(=O)OCC(CC)CCCC)S(=O)(=O)[O-].C[N+](C)(C)CCCCCC[N+](C)(C)C` (stereo not drawn) [Example 3, Me3N(CH2)6NMe3 Docusate], the Solubility in water result in “Solubility in water” is recorded as “Hydrophobic”. As to `CCCCC(CC)COC(=O)CC(C(=O)OCC(CC)CCCC)S(=O)(=O)[O-].CCCC[N+](CCCC)(CCCC)CCCC` (stereo not drawn) [Example 1, tetrabutylammonium docusate], the “Solubility in supercritical carbon dioxide (CO2)” value in data set [1] is “soluble”. With `CCCCC(CC)CN(CC)C(=O)CC(C(=O)N(CC)CC(CC)CCCC)S(=O)(=O)[O-].CCCC[N+](CCCC)(CCCC)CCCC` (stereo not drawn) [Example 11], the Solubility in water entry in the data set “Solubility in water” was “soluble”. Also, the “Solubility in several common organic solvents” value in data set [2] was “soluble”. For `CCCCC(CC)COC(=O)CC(C(=O)OCC(CC)CCCC)S(=O)(=O)[O-].CC[N+](CC)(CC)CC` (stereo not drawn) [Example 5, Et4N Docusate], in “Solubility in water”, the Solubility in water result is on record as “miscible”. In the case of `CCCCC(CC)COC(=O)CC(C(=O)OCC(CC)CCCC)S(=O)(=O)[O-].CCCCCCn1cc[n+](C)c1` (stereo not drawn) [Example 6, 1-n-hexyl-3-methyl imidazolium docusate], the “Phase behaviour on contact with water” value by setting is: (addition of additional water to the gel, followed by agitation) “formation of two phases”; (contacted with 40 volume percent or less of water, even after agitation) “formation of two phases”; (contacted with 50 volume percent water, agitation) “stiff, visibly monophasic gel”.
